Assay results as given in ChEMBL document CHEMBL5505985 (Eur J Med Chem, 2024).

Tests used:
RAW264.7 [1] = test: Cytotoxicity activity mouse RAW264.7 cells assessed as decrease in survival rate at 50 uM incubated for 48 hrs by MTT assay; assay type: toxicity, cell-based; conditions: raw264.7, 48 h
RAW264.7 [2] = test: Cytotoxicity activity mouse RAW264.7 cells assessed as reduction in cell viability at 10 uM incubated for 48 hrs by MTT assay; assay type: toxicity, cell-based; conditions: raw264.7, 48 h
[3] = biological target: T1, Prostaglandin G/H synthase 2 (Homo sapiens) (UniProt P35354); test: Inhibition of human recombinant COX-2 using arachidonic acid as substrate at 10 uM pretreated for 5 mins followed by substrate addition and measured after 2 mins by fluorescence based analysis relative to control; conditions: time 7.0 min
T1 sequence (whole entry): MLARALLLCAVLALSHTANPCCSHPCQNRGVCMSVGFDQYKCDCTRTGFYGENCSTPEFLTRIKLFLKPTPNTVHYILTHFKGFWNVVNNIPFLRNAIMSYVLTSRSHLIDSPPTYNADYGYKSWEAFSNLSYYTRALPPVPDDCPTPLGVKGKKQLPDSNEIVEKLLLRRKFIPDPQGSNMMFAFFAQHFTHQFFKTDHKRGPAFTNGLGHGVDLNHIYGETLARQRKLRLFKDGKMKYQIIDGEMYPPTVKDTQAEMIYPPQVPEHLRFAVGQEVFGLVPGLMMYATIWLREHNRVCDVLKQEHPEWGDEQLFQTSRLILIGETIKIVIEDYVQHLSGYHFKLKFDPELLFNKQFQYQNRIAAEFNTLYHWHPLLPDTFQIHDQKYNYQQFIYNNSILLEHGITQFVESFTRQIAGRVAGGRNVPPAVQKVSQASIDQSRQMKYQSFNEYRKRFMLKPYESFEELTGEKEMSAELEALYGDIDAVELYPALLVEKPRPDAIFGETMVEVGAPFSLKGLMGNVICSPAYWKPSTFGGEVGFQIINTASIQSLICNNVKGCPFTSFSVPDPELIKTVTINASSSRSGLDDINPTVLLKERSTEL

| SMILES | Activity (RAW264.7 [1]) | Activity (RAW264.7 [2]) | inhibition [3] |
| --- | --- | --- | --- |
| Clc1cccc(Cl)c1Nc1ccccc1Cc1nnc(SCc2ccncc2)o1 | Toxic | Non-Toxic | – |
| Clc1cccc(CSc2nnc(Cc3ccccc3Nc3c(Cl)cccc3Cl)o2)c1 | – | Non-Toxic | < 30% |
| Cc1cccc(CSc2nnc(Cc3ccccc3Nc3c(Cl)cccc3Cl)o2)c1 | – | Non-Toxic | – |
| Clc1cccc(Cl)c1Nc1ccccc1Cc1nnc2n1N=C(c1ccccc1)CS2 | – | Non-Toxic | – |
| Fc1ccc(CSc2nnc(Cc3ccccc3Nc3c(Cl)cccc3Cl)o2)c(F)c1 | – | Non-Toxic | – |
| N#Cc1ccc(CSc2nnc(Cc3ccccc3Nc3c(Cl)cccc3Cl)o2)cc1 | – | Non-Toxic | – |
| COc1ccc(CSc2nnc(Cc3ccccc3Nc3c(Cl)cccc3Cl)o2)cc1 | – | Non-Toxic | – |
| Fc1ccc(C2=Nn3c(Cc4ccccc4Nc4c(Cl)cccc4Cl)nnc3SC2)cc1 | Toxic | Non-Toxic | – |
| Clc1cccc(Cl)c1Nc1ccccc1Cc1nnc(SCc2ccc(Br)cc2)o1 | – | Non-Toxic | – |
| Clc1ccccc1CSc1nnc(Cc2ccccc2Nc2c(Cl)cccc2Cl)o1 | – | Non-Toxic | < 30% |
| Clc1cccc(Cl)c1Nc1ccccc1Cc1nnc(SC2CCCCC2)o1 | – | Non-Toxic | – |
| O=C(Cc1ccccc1Nc1c(Cl)cccc1Cl)NN1C(=O)CCC1=O | – | Non-Toxic | – |
| Clc1cccc(Cl)c1Nc1ccccc1Cc1nnc(SCC2CCCCC2)o1 | – | Non-Toxic | – |
| O=C(Cc1ccccc1Nc1c(Cl)cccc1Cl)NN1C(=O)c2ccccc2C1=O | Toxic | Non-Toxic | – |
| O=[N+]([O-])c1ccccc1C1=Nn2c(Cc3ccccc3Nc3c(Cl)cccc3Cl)nnc2SC1 | – | Non-Toxic | – |
| Fc1ccc(CSc2nnc(Cc3ccccc3Nc3c(Cl)cccc3Cl)o2)cc1 | – | Non-Toxic | – |
| Clc1cccc(Cl)c1Nc1ccccc1Cc1nnc(SCc2cccc(Br)c2)o1 | – | Non-Toxic | – |
| Clc1cccc(Cl)c1Nc1ccccc1Cc1nnc2n1N=C(c1ccc(Br)cc1)CS2 | – | Non-Toxic | – |
| Cc1ccc(CSc2nnc(Cc3ccccc3Nc3c(Cl)cccc3Cl)o2)cc1 | – | Non-Toxic | – |

| SMILES | Activity (RAW264.7 [1]) | Activity (RAW264.7 [2]) | inhibition [3] |
| --- | --- | --- | --- |
| Fc1ccccc1CSc1nnc(Cc2ccccc2Nc2c(Cl)cccc2Cl)o1 | – | Non-Toxic | – |
| CCSc1nnc(Cc2ccccc2Nc2c(Cl)cccc2Cl)o1 | – | Non-Toxic | – |
| Clc1cccc(Cl)c1Nc1ccccc1Cc1nnc(SCc2ccccc2)o1 | – | Non-Toxic | – |
| CC(C)Sc1nnc(Cc2ccccc2Nc2c(Cl)cccc2Cl)o1 | – | Non-Toxic | – |
| Clc1cccc(C2=Nn3c(Cc4ccccc4Nc4c(Cl)cccc4Cl)nnc3SC2)c1 | Toxic | Non-Toxic | – |
| Cc1ccccc1CSc1nnc(Cc2ccccc2Nc2c(Cl)cccc2Cl)o1 | – | Non-Toxic | – |
| O=[N+]([O-])c1ccc(C2=Nn3c(Cc4ccccc4Nc4c(Cl)cccc4Cl)nnc3SC2)cc1 | – | Non-Toxic | – |
| CCCSc1nnc(Cc2ccccc2Nc2c(Cl)cccc2Cl)o1 | – | Non-Toxic | – |
| Fc1cccc(C2=Nn3c(Cc4ccccc4Nc4c(Cl)cccc4Cl)nnc3SC2)c1 | – | Non-Toxic | – |
| COc1ccc(C2=Nn3c(Cc4ccccc4Nc4c(Cl)cccc4Cl)nnc3SC2)cc1 | – | Non-Toxic | – |
| Clc1ccc(CSc2nnc(Cc3ccccc3Nc3c(Cl)cccc3Cl)o2)cc1 | – | Non-Toxic | < 30% |
| Fc1cccc(CSc2nnc(Cc3ccccc3Nc3c(Cl)cccc3Cl)o2)c1 | – | Non-Toxic | – |
| CCCCSc1nnc(Cc2ccccc2Nc2c(Cl)cccc2Cl)o1 | – | Non-Toxic | – |
| Clc1cccc(Cl)c1Nc1ccccc1Cc1nnc2n1N=C(c1ccccc1Br)CS2 | – | Non-Toxic | – |
| COc1cccc(C2=Nn3c(Cc4ccccc4Nc4c(Cl)cccc4Cl)nnc3SC2)c1 | – | Non-Toxic | – |
| Clc1cccc(Cl)c1Nc1ccccc1Cc1nnc2n1N=C(c1cccc(Br)c1)CS2 | Toxic | Non-Toxic | – |
| CSc1nnc(Cc2ccccc2Nc2c(Cl)cccc2Cl)o1 | – | Non-Toxic | – |
| Clc1ccc(C2=Nn3c(Cc4ccccc4Nc4c(Cl)cccc4Cl)nnc3SC2)cc1 | Toxic | Non-Toxic | – |
